# Measurements published in patent US11447550B2, “Peptides for molecular detection of PD-L1” (THE CURATORS OF THE UNIVERSITY OF MISSOURI, priority 2016, dated 2022).
# Ends that are not written are not given here. * marks the point of attachment. Biotin = O=C1N[C@H]2[C@H](CS[C@H]2CCCCC(=O)*)N1
# Tests used:
# [1] = target: T1, PD-L1 (Homo sapiens, UniProt Q9NZQ7); assay: IHC blocking using PD-L1 peptide or Ventana antibody SP263; format: binding; set-up: Seven PD-L1 expressing NSCLC patient tissues were obtained from the MU OneHealth tissue bank; tissue MU OneHealth tissue bank; U.S. Biomax (TMA) LC1923; host or cells: FFPE placenta, seven NSCLC patient tissues, 192-case lung cancer tissue microarray, four Hodgkin's lymphoma cases; conditions: placenta tissue treated with RK-10-Biotin for 30 minutes, then Ventana SP263 on Roche autostainer, FIG. 8 panel c
# Method: To test specificity of the PD-L1 peptide, PD-L1 receptors were first blocked on the tissue with RK-10 peptide for 1 hour prior to autostaining the tissue with SP263 antibody using the Roche autostainer with the Ventana PD-L1 kit according to Roche's specifications. Blocking of the RK-10 peptide using the SP263 antibody was also investigated by first treating the tissue with SP263 antibody for 30 minutes prior to treating the tissue with peptide according to the previously mentioned protocol.
# Seven Patient NSCLC tissues were investigated for PD-L1 using either manual IHC with 15 μM RK-10-Biotin peptide, or the Ventana PD-L1 (SP263) rabbit monoclonal primary antibody stained on a Roche Benchmark Ultra. In this study the peptide was conjugated with biotin, which was used to bind a secondary treatment of streptavidin-HRP. Formalin-Fixed, Paraffin Embedded (FFPE) placenta tissue was used as the positive control, since PD-L1 is expressed in placental trophoblasts (Veras, E., Kurman, R. J., Wang, T.-L. & Shih, I.-M. International Journal of Gynecological Pathology Publish Ahead of Print). This study also utilized biotinylated mock peptide RK-11-Biotin as a negative control. This mock peptide was synthesized to have very low affinity to PD-L1. Both the PD-L1 peptide and Ventana clone SP263 stained the trophoblasts heavily in the placental tissue (FIG. 8). […]
# [2] = target: T1, PD-L1; assay: Immunohistochemistry using biotinylated peptide on FFPE tissues; format: binding; set-up: Seven PD-L1 expressing NSCLC patient tissues were obtained from the MU OneHealth tissue bank; tissue MU OneHealth tissue bank; U.S. Biomax (TMA) LC1923; host or cells: FFPE placenta, seven NSCLC patient tissues, 192-case lung cancer tissue microarray, four Hodgkin's lymphoma cases; conditions: for staining of placental trophoblasts: FFPE placenta tissue (positive control), FIG. 8
# Source text: To detect PD-L1 in FFPE tissues, manual IHC techniques were employed with a biotin-conjugated version of peptide RK-10-Cy5 and compared with Ventana PD-L1 (SP263) Rabbit monoclonal Primary Antibody stained on a Roche Benchmark Ultra autostainer. Seven PD-L1 expressing NSCLC patient tissues were obtained from the MU OneHealth tissue bank and de-identified according to IRB protocols. Paraffin-embedded patient tissue slides were baked overnight, then de-waxed and rehydrated according to standard protocols. Tissue sections were then subjected to antigen retrieval in EDTA at 95° C. for 20 minutes in EDTA […]. The solution is then cooled for an additional 20 minutes on the bench top prior to buffer rinse. Tissues were then incubated with […] for 2 hours in a humid chamber at RT. After 2 hours, slides were washed with buffer and treated with PIERCE™ High Sensitivity Streptavidin-HRP (1:200 dilution) (Sigma) for 30 minutes at RT in a humid chamber. Once this was complete, slides were again washed in buffer then treated with DAB (3,3′-Diaminobenzidine; Sigma) for 10 minutes. Slides were again washed in buffer, then dehydrated using graded alcohol and xylene and counterstained with hematoxylin. Slides were then imaged using bright-field microscopy on a Leica DM5500.
# Seven Patient NSCLC tissues were investigated for PD-L1 using either manual IHC with 15 μM RK-10-Biotin peptide, or the Ventana PD-L1 (SP263) rabbit monoclonal primary antibody stained on a Roche Benchmark Ultra. In this study the peptide was conjugated with biotin, which was used to bind a secondary treatment of streptavidin-HRP. Formalin-Fixed, Paraffin Embedded (FFPE) placenta tissue was used as the positive control, since PD-L1 is expressed in placental trophoblasts (Veras, E., Kurman, R. J., Wang, T.-L. & Shih, I.-M. International Journal of Gynecological Pathology Publish Ahead of Print). This study also utilized biotinylated mock peptide RK-11-Biotin as a negative control. This mock peptide was synthesized to have very low affinity to PD-L1. Both the PD-L1 peptide and Ventana clone SP263 stained the trophoblasts heavily in the placental tissue (FIG. 8). […] Blocking of the Ventana antibody was achieved by first treating the placenta tissue with RK-10-Biotin for 30 minutes, washing, and treating on the Roche autostainer according to specifications. […] As a negative control, normal lung, breast, and colorectal tissues were stained using RK-10 and SP263.
# Once confidence in PD-L1 staining was established in repeated placenta tissues, staining in seven NSCLC patient tissues (patients ‘A’ through ‘G’) was compared with the Ventana SP263 antibody and RK-10-Biotin (FIG. 9). […]
# T1 sequence (Q9NZQ7 19-290): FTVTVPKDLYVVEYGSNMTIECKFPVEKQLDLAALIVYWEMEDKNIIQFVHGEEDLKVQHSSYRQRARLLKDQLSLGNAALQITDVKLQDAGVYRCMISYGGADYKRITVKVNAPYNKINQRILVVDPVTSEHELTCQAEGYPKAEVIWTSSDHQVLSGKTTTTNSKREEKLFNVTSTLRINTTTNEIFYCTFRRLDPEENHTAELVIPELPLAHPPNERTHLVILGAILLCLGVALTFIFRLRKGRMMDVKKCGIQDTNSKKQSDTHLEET
Substance,SP263 staining after pre-blocking with peptide [1],staining of placental trophoblasts [2],"tumor staining in NSCLC patient tissues ([2]; seven NSCLC patient tissues A-G, 15 μM peptide, FIG. 9)","staining of normal tissues ([2]; normal lung, breast and colorectal tissues (negative control))"
Biotin-GSGSGSTYLCGAISLAPKAQIKESL [RK-10-Biotin],drastic reduction of staining,heavy membrane staining of the trophoblast cells,heaviest staining was observed localized to the tumor regions of the tissues,
Biotin-GSGSGSFVLNWYRMSPSNQTDKLAA [RK-11-Biotin],,light staining at high concentrations,,
GSGSGSTYLCGAISLAPKAQIKESL [RK-10],,,,negative for PD-L1 expression
